In ChEMBL document CHEMBL3045183, “Bioefficacy of violacein against Asian armyworm Spodoptera litura Fab. (Lepidoptera: Noctuidae)” (2012):
In brackets after ≈: the same amount, converted by molar mass. Activity calls are given as the source filed them. The rule behind the calls is not given here.

Experiments:
[1] = tested on: Chironomus riparius; test: Larvicidal activity against Chironomus riparius; assay type: functional
[2] = tested on: Spodoptera litura; test: Insecticidal activity Spodoptera litura third-instar larva fed on 250 ppm compound pre-treated castor leaf disks for 24 hr followed by larval maintenance on fresh castor leaves assessed as total mortality (reference value: 8%); assay type: functional
[3] = tested on: Spodoptera litura; test: Insecticidal activity Spodoptera litura third-instar larva fed on 125 ppm compound pre-treated castor leaf disks for 24 hr followed by larval maintenance on fresh castor leaves assessed as total mortality (reference value: 8%); assay type: functional
[4] = tested on: Spodoptera litura; test: Pupicidal activity Spodoptera litura third-instar larva fed on 250 ppm compound pre-treated castor leaf disks for 24 hr followed by larval maintenance on fresh castor leaves until pupae formation assessed as pupal mortality (reference value: 8.0 +/- 4.47%); assay type: functional
[5] = tested on: Spodoptera litura; test: Pupicidal activity Spodoptera litura third-instar larva fed on 125 ppm compound pre-treated castor leaf disks for 24 hr followed by larval maintenance on fresh castor leaves until pupae formation assessed as pupal mortality (reference value: 8.0 +/- 4.47%); assay type: functional
[6] = tested on: Spodoptera litura; test: Larvicidal activity Spodoptera litura third-instar larva fed on compound pre-treated castor leaf disks for 24 hr followed by larval maintenance on fresh castor leaves assessed as insect mortality measured after 96 hr; assay type: functional; conditions: for LC50: Spodoptera litura, foliar
[7] = tested on: Spodoptera litura; test: Larvicidal activity Spodoptera litura third-instar larva fed on 1000 ppm compound pre-treated castor leaf disks for 24 hr followed by larval maintenance on fresh castor leaves assessed as insect mortality measured after 96 hr; assay type: functional
[8] = tested on: Spodoptera litura; test: Larvicidal activity Spodoptera litura third-instar larva fed on 500 ppm compound pre-treated castor leaf disks for 24 hr followed by larval maintenance on fresh castor leaves assessed as insect mortality measured after 96 hr; assay type: functional
[9] = tested on: Spodoptera litura; test: Larvicidal activity Spodoptera litura third-instar larva fed on 250 ppm compound pre-treated castor leaf disks for 24 hr followed by larval maintenance on fresh castor leaves assessed as insect mortality measured after 96 hr; assay type: functional
[10] = tested on: Spodoptera litura; test: Larvicidal activity Spodoptera litura third-instar larva fed on 125 ppm compound pre-treated castor leaf disks for 24 hr followed by larval maintenance on fresh castor leaves assessed as insect mortality measured after 96 hr; assay type: functional
[11] = tested on: Spodoptera litura; test: Antifeedant activity against Spodoptera litura third-instar larva fed on compound pre-treated castor leaf disks measured after 24 hr by leaf-disk no-choice method (reference value: 2.09 +/- 0.94%); assay type: functional; conditions: for LC50: Spodoptera litura, foliar
[12] = tested on: Spodoptera litura; test: Antifeedant activity against Spodoptera litura third-instar larva fed on 1000 ppm compound pre-treated castor leaf disks measured after 24 hr by leaf-disk no-choice method (reference value: 2.09 +/- 0.94%); assay type: functional
[13] = tested on: Spodoptera litura; test: Antifeedant activity against Spodoptera litura third-instar larva fed on 500 ppm compound pre-treated castor leaf disks measured after 24 hr by leaf-disk no-choice method (reference value: 2.09 +/- 0.94%); assay type: functional
[14] = tested on: Spodoptera litura; test: Antifeedant activity against Spodoptera litura third-instar larva fed on 250 ppm compound pre-treated castor leaf disks measured after 24 hr by leaf-disk no-choice method (reference value: 2.09 +/- 0.94%); assay type: functional
[15] = tested on: Spodoptera litura; test: Antifeedant activity against Spodoptera litura third-instar larva fed on 125 ppm compound pre-treated castor leaf disks measured after 24 hr by leaf-disk no-choice method (reference value: 2.09 +/- 0.94%); assay type: functional
[16] = tested on: Helicoverpa armigera; test: Antifeedant activity against Helicoverpa armigera at 1000 ppm; assay type: functional
[17] = tested on: Spodoptera litura; test: Insecticidal activity Spodoptera litura third-instar larva fed on 1000 ppm compound pre-treated castor leaf disks for 24 hr followed by larval maintenance on fresh castor leaves assessed as induction of abnormalities; assay type: functional, organism-based
[18] = tested on: Spodoptera litura; test: Insecticidal activity Spodoptera litura third-instar larva fed on 1000 ppm compound pre-treated castor leaf disks for 24 hr followed by larval maintenance on fresh castor leaves assessed as total mortality (reference value: 8%); assay type: functional
[19] = tested on: Spodoptera litura; test: Insecticidal activity Spodoptera litura third-instar larva fed on 500 ppm compound pre-treated castor leaf disks for 24 hr followed by larval maintenance on fresh castor leaves assessed as total mortality (reference value: 8%); assay type: functional
[20] = tested on: Spodoptera litura; test: Pupicidal activity Spodoptera litura third-instar larva fed on 1000 ppm compound pre-treated castor leaf disks for 24 hr followed by larval maintenance on fresh castor leaves until pupae formation assessed as pupal mortality (reference value: 8.0 +/- 4.47%); assay type: functional
[21] = tested on: Spodoptera litura; test: Pupicidal activity Spodoptera litura third-instar larva fed on 500 ppm compound pre-treated castor leaf disks for 24 hr followed by larval maintenance on fresh castor leaves until pupae formation assessed as pupal mortality (reference value: 8.0 +/- 4.47%); assay type: functional

Row | Compound | mortality [2] [%] | mortality [3] [%] | mortality [4] [%] | mortality [5] [%] | LC90 [6] [ppm] | LC50 [6] [µg/mL] | mortality [7] [%] | mortality [8] [%] | mortality [9] [%] | mortality [10] [%] | LC90 [11] [ppm] | LC50 [11] [µg/mL] | AFI [12] [%] | AFI [13] [%] | AFI [14] [%] | AFI [15] [%] | other results
1 | [C-]#[N+][C@@H]1[C@H]2c3c[nH]c4cccc(c34)C(C)(C)[C@H]2CC[C@@]1(C)C=C [12-EPI-HAPALINDOLE J ISONITRILE] | – | – | – | – | – | – | – | – | – | – | – | – | – | – | – | – | Activity [1]: 100%
2 | C/C=C(\C)C(=O)O[C@H]1C[C@@H](OC(C)=O)[C@@]2(C(=O)OC)CO[C@H]3[C@@H](O)[C@@](C)([C@]45O[C@@]4(C)[C@@H]4C[C@H]5O[C@@H]5OC=C[C@@]54O)[C@H]4[C@]1(CO[C@]4(O)C(=O)OC)[C@@H]32 [AZADIRACHTIN A] | 98.28 | 85.33 | 28 | 28 | 412.78 | 119 (≈ 165 µM) | 100 | 93.55 | 70.21 | 57.33 | 3278.46 | 134 (≈ 186 µM) | 79.41 | 70.49 | 61.31 | 49.67 | –
3 | O=C1NC(c2c[nH]c3ccc(O)cc23)=C/C1=C1\C(=O)Nc2ccccc21 [VIOLACEIN] | 77.99 | 51.11 | 24 | 22 | 2016.71 | 255 (≈ 743 µM) | 77.1 | 68.88 | 53.99 | 29.11 | 3649.91 | 392 (≈ 1140 µM) | 72.46 | 55.16 | 39.69 | 28.66 | AFI [16]: >80%; Activity [17]: Active; mortality [18]: 99.1%; mortality [19]: 89.58%; mortality [20]: 22%; mortality [21]: 20.7%
